The values below come from patent US11633512B2, “Method for disinfecting soils or other agricultural growing media” (Agrozono, S.L., priority 2017, dated 2023).

Like-named read-outs stand apart in the source and are kept apart here.

Data set [1] has as its system Erwinia amylovora and Clavibacter michiganensis. Put plainly: Disinfection of infected soil in containers: survival of phytopathogenic bacteria. It counts as in vivo. Here is the method:
In order to achieve the aforementioned objectives, soil without crops was infected with the phytopathogenic species Sclerotinia, Fusarium, Erwinia, Phytophthora and Clavibacter. The assay was performed in Lorca (Murcia). It took place in open air in bins with soil without crops and wherein tomatoes, peppers and melons had been grown previously. After performing the first application of the method of the present invention, tomato plants, Lycopersicum esculentum, were transplanted, the response of the plants to the treatments being evaluated.
The microbiological content of the soil was evaluated at different depths: 20, 40 and 60 cm., before and after the applications.
Containers were installed with a known volume of 1000 l (1×1×1 m) in field. Moreover, a medium proceeding from a greenhouse with melons, peppers and tomatoes having been grown there previously was selected and homogenised. Subsequently, the containers were filled with this medium.
In the laboratory, the following species were cultivated in vitro: • Phytopathogenic bacteria: Erwinia amylovora and Clavibacter michiganensis • Phytopathogenic fungi: Sclerotinia sp, Fusarium oxysporum and Phytophthora citrophthora
Each microorganism was grown in liquid medium until reaching a concentration of 10^8 ufc/ml. For each of the bins, 1 litre of microbial solution was prepared.
Then the pathogenic microorganisms were inoculated in the medium, periodic irrigations were performed until reaching the capacity of the medium, samples were taken at different depths (20 cm, 40 cm and 60 cm) and the phytopathogens were counted in said samples, in order to verify the permanence and presence of phytopathogens in the soil.
A first application of the disinfection method with ozone was performed. To do so, the ozonation equipment was inserted into the irrigation system and the parameters of said equipment were adjusted in order to achieve ozonated water with at least 2 ppm of dissolved ozone. Subsequently, the soil was left to rest for 30 min and the tomato plants, Lycopersicum esculentum, were transplanted. Subsequently, a second application of the disinfection method with ozone was performed in the same conditions indicated previously and, after letting the treated soil rest for 30 min, the microorganism formula (1) was inoculated.
In order to analyse the effect of the treatment on the disinfection of the soil, samples were taken at different depths (20 cm, 40 cm and 60 cm) and on different dates, and the microbial load in each of the samples was analysed.
In this section the data obtained is described. As explained in the assay protocol, soil samples were taken at different depths (20 cm, 40 cm and 60 cm) and quality controls were performed quantifying the number of pathogenic fungi and bacteria present.

A further data set deals with coliform bacteria. To be noted: cited from earlier work.
For another data set, the system named is nematodes. Briefly: Evolution of nematodes in soil after ozone treatment and inoculation of microorganisms. The data set is classed as in vivo. To be noted: 5.5 ppm of ozone for 2 hours; before treatment 480 juveniles/100 cc of earth.
For the next data set, the system named is microorganisms. The following applies: cited from earlier work.
The conditions of data set [2]: cited from earlier work.
A further data set concerns nematodes (Meloidogyne). Briefly: Disinfection of nematodes in Padrón pepper crop (greenhouse). It counts as in vivo, Meloidogyne sp. Here is the method:
On a 500 m^2 surface of a greenhouse, with a water consumption of 3000 l/h, the disinfection with ozone was performed at a dose of 6 ppm, revising with the REDOX readings that a reading of 1000 mV is obtained in the farthest drip emitters, starting from a value of 185 mV in the irrigation water without ozone.
When the treatment ends, the inoculation of the microorganism formula (1) is performed (see example 1). Seven days after performing the treatment, samples of earth are taken to see the level of nematode infestation, observing a decrease of 90% of the population.

Data set [3] concerns Sclerotinia sp, Fusarium oxysporum and Phytophthora citrophthora. Put plainly: Disinfection of infected soil in containers: survival of phytopathogenic fungi. The data set is classed as in vivo. The arrangement: reduction of pathogenic fungi: concentration or dose not given beside the values.
The subject of data set [4] is tomato plants, Lycopersicum esculentum. Briefly: Phytotoxicity and plant development of tomato plants transplanted into treated soil. The data set is classed as in vivo. Here is the method: Afterwards, as mentioned earlier, once the first disinfection was finished, tomato seedlings were transplanted into the bins in order to evaluate the “residual effect” of the treatment. Subsequently, the study of the plant development of the plants was performed.
After the first application of the disinfection method, on 19 Sep. 2014, 2 tomato plants were transplanted per container. The residual effect of the ozone was evaluated.
Throughout the assay, the parameters evaluated were: • Flow rate and ppm ozone at the outlet. • Microbial evaluation of the soil (t=0; t=7 days and t=30 days). • Relationship of the depth with the possible fungicidal effect. • Having established the tomato plants, it was evaluated if the treatments caused phytotoxicity.
The parameters that will be observed in the crop will be the appearance of necrosis and burning on leaves and fruits. • Plant development of the crop.
After the first application of the treatment with ozone, 2 tomato plants were transplanted into each of the containers. The growth of the plants was evaluated for three months, ending the analysis of this parameter on 2 January due to frost in the area (see FIGS. 5a and 5b).

For `O=[O+][O-]` [ozone], in data set [1] (after first application of ozonated water), the “mortality of pathogenic mesophilic bacteria” value is recorded as “less than 50%”. In addition, the “reduction of pathogenic mesophilic bacteria” value in data set [1] (after second application) was 50%; in data set [1] (after second application, listed as ozonated water) it was “at least 50%”; in data set [1] (second application, depth 60 cm), 60%. Further, the “reduction of populations of pathogenic bacteria compared with control” value in data set [1] (application 1, all depths tested except 60 cm) was “less than 50%”. For the same compound, the “completeness of reduction of pathogenic bacteria” value in data set [1] (application 2) is recorded as “the reduction was not complete”. Further, the “time to kill 99% of 60,000 coliform bacteria/ml” value in the data set on coliform bacteria was 2.8 s. Moreover, the “presence of juveniles after the treatment with ozone” value with nematodes is on record as 44 /100 cc of earth. Also, the “application period necessary for disinfection” value in the data set with microorganisms was 5 s. Also, the “time needed in order to eliminate microorganisms” value in the data set with microorganisms was “four”. In addition, the “useful life of ozone” value in data set [2] (water temperature of 15° C.) was 30 min; in data set [2] (water temperature of 25° C.), 15 min. Moreover, in data set [2] (water without organic matter, pH of 7, water temperature of 15° C.), the “time until degradation of the ozone into oxygen” value is “about 30 minutes”. Also, the “Meloidogyne sp. after the disinfection” value in the data set with nematodes (Meloidogyne) (ozonated irrigation, crop in full production, before disinfection 88 juveniles/100 cc soil) came to 8 juveniles/1 cc soil. The “decrease of the nematode population” value in the data set on nematodes (Meloidogyne) (ozone 6 ppm, then inoculation of microorganism formula (1), soil samples seven days after treatment) came to 90%. The “reduction of pathogenic fungi” value in data set [3] (application 1, 24 hours after application, depth 20 cm) is 100%; in data set [3] (application 1, 24 hours after application, depth 60 cm) it was 100%; in data set [3] (application 2, depth 20 cm), 100%; in data set [3] (application 2, depth 40 cm, effect prolonged for 30 days), 100%; in data set [3] (application 2, depth 60 cm, effect prolonged for 30 days) it was 100%. Moreover, in data set [3] (application 2, depth 20 cm, 30 days), the “fungi present a month after application” value is given as “traces of fungi appearing a month later”. Besides, the “disinfection against the phytopathogenic fungi tested” value in data set [3] (overall result of the soil assays, ozonated water at least 2 ppm) is reported as 100%. In addition, in data set [4] (plants transplanted after first application into infected, treated soil), the “plant development of tomato plants” value is recorded as “vigorous plant development”. Further, the “phytotoxicity: growth and plant development” value in data set [4] (three months after the transplant) is “normal growth and plant development”.
